Literature values, collected in patent publication US7867523B2, “Pharmaceutical composition” (priority 2008, dated 2011).

Legend:
influenza virus = conditions: administered six hours after infection and continued for twenty-four hours
[1] = test system: immune cell types present in the blood; conditions: one gram daily for two weeks, patients
[2] = acute and long-term, animals, oral

## Oc1ccc(C=Cc2cc(O)cc(O)c2)cc1 [resveratrol, Resveratrol]
Influenza virus
  antiviral effect (restricting ability of the virus to replicate): substantial

## O=C1O[C@H]([C@@H](O)CO)C(O)=C1O [vitamin C, Ascorbic acid]
[1]
  interferon-gama production by T cells: significantly more
  number of NK cells: increased
  number of T cells: remained the same

## Arabinogalactan
[2]
  toxicity: no evidence of toxicity
